Assays:
rat bone marrow cultures [1] = assay: APA in rat bone marrow cultures treated with BaP; type: cell-based; details: increasing concentrations of BaP, ten-day old cultures
Experimental: In this experiment, the effects of the aryl hydrocarbon, benzo-a-pyrene (BaP) on the early events occurring during osteogenesis were determined. Ten-day old rat bone marrow cultures were treated with increasing concentrations of BaP. The effect of this treatment was monitored by APA as set out above.

rat bone marrow cultures [2] = assay: Mineral levels in rat bone marrow cultures treated with BaP; type: cell-based; details: BaP at 10^−8M

**Q.** `c1ccc2c(c1)cc1ccc3cccc4ccc2c1c34` [BaP, benzo-a-pyrene, reference compound] was tested. Which “inhibition of alkaline phosphatase” value (rat bone marrow cultures [1]) did it give?
**A.** The value was “increased inhibition of alkaline phosphatase with increasing BaP concentration”.

**Q.** And the “inhibition of mineral levels” value (rat bone marrow cultures [2])?
**A.** Its value is at most 90%.

Reference: patent US6716883B1, “Composition useful to treat periodontal disease” (priority 1998, dated 2004)
